{"source": "patent US12390505B2", "about": "“Composition for preventing or treating obesity or diabetes, comprising acanthopanax senticosus extract and garcinia cambogia extract or compound isolated therefrom” (KOREA RESEARCH INSTITUTE OF BIOSCIENCE AND BIOTECHNOLOGY, priority 2020, dated 2025)", "key": {"[1]": {"test": "Example 12 HFD mice: oral glucose tolerance test", "assay_type": "in vivo, mouse", "details": "oral once daily 10 weeks, 50 mg/kg", "description": "After adapting 8-week-old male C57b1/6 J mice to the basic diet (AIN-76A diet) for 2 weeks, and consuming Diet Induced Obesity Diet Formulas (D12451) 60 kcal % HFD diet for 2 weeks from 10 weeks of age, and then the test drug was administered when the average body weight reached 28 g or more. The animal breeding room environment of the mouse was maintained in a constant temperature (25±2° C.), constant humidity (50±5%) and a 12-hour photoperiod (light on 07:00˜19:00) in which the light and shade were controlled in an SPF environment. […] The test drug was dispersed in 0.5% Carboxymethyl cellulose (CMC) and administered in a volume of 0.2 ml, and the drug was administered orally by force into the stomach using a metal Zonde for oral administration.\n[…] Blood to be used for blood glucose measurement was collected from the tail vein of a mouse, and blood glucose was measured using a serum analyzer (Accutrend plus GCTL Cobas Roche, Germany).\nResults obtained from various experiments are recorded as mean±standard error of mean (SEM), and significance verification is determined using the student's T-test analysis method. The data were analyzed using one-way ANOVA to determine a statistically significant variance between each group for each final point measured, and statistical significance between each group was determined using the nonparametric Mann-Whitney test and Dunnett's multiple comparison test (IBM SPSS statistics version 19.0 statistic software, Inc, IBM, USA)."}, "[2]": {"test": "Example 12 HFD mice: serum test", "assay_type": "in vivo, mouse", "details": "serum of HFD mice, oral once daily for 10 weeks; chiisanogenin 50 mg/kg; Garcinia cambogia extract 200 mg/kg; combination 50 + 150 mg/kg; Met 50 mg/kg", "description": "The test drug was dispersed in 0.5% Carboxymethyl cellulose (CMC) and administered in a volume of 0.2 ml, and the drug was administered orally by force into the stomach using a metal Zonde for oral administration. Blood was collected by cardiac puncture to conduct a blood biochemical test after the end of the final experiment, and then plasma was separated by centrifugation at 3,000 rpm and 4° C. for 15 minutes within 30 minutes after blood collection, and then stored at −74° C. for blood chemistry and ELISA analysis. The contents of total cholesterol, high-density lipoprotein (HDL), low-density lipoprotein (LDL), triglyceride, FFA, glucose, and LDH, which are indicators of lipid content, were measured using an automated biochemical analyzer (Hitachi-720, Hitachi Medical, Japan). IGF-1 and Creatine were diluted in coating buffer, coated on microwells, and left overnight at 4° C. […] 100 μl of the TMB substrate was dispensed, left in the dark for 30 minutes, treated with 50 μl of the stop solution, and absorbance was measured at a wavelength of 450 nm using an ELISA reader. Results obtained from various experiments are recorded as mean±standard error of mean (SEM), and significance verification is determined using the student's T-test analysis method. […]"}, "L6 myotube cells [3]": {"test_system": "L6 myotube cells", "test": "Isobologram analysis of glucose absorption capacity, chiisanogenin and Ca-HCA", "assay_type": "cell-based", "details": "Rattus norvegicus; differentiated L6 myotube cells, single compound", "description": "(§1) To differentiate rat myoblast L6 cells into myotubes, it was suspended at a concentration of 1×10^4 cells/ml in MEM medium (Welgene) supplemented with 10% of Fetal Bovine Serum and 1% of antibiotic antimycotic, and then 500 μl each was inoculated into a 24-well plate and cultured to the full for 2 days. […] The differentiated myotube cells were replaced with serum-free medium before the experiment and left for 6 hours. Myotube cells were pretreated with 100 nM porcine-derived insulin and 20 μM cytochalacin B for 15 minutes, and other samples were pretreated for 30 minutes. […] After the reaction, the cells were washed twice with Krebs-Ringer buffer (20 mM Tris-HCl, 2 mM EDTA, and 0.5 mM EGTA, pH 7.4), and the cells were lysed with 0.5N NaOH and mixed with a scintillation cocktail. The intracellular radiation dose of 2-DG was measured using a liquid scintillation counter (Tri-Carb 2900TR liquid scintillation analyzer, Perkin Elmer)."}, "PPAR-gamma mRNA": {"test_system": "PPAR-gamma mRNA", "test": "Example 12 HFD mice: adipose tissue PPAR-gamma mRNA analysis", "assay_type": "in vivo, mouse", "details": "adipose tissue of HFD mice, oral once daily for 10 weeks, chiisanogenin 50 mg/kg, Garcinia cambogia extract 200 mg/kg, combination 50 + 150 mg/kg, Met 50 mg/kg", "description": "The test drug was dispersed in 0.5% Carboxymethyl cellulose (CMC) and administered in a volume of 0.2 ml, and the drug was administered orally by force into the stomach using a metal Zonde for oral administration. RNA was extracted from tissues using RNAsolB (Tel-Test) solution, and cDNA and real-time PCR analysis were performed using One-step SYBR Green PCR kit (AB science). From the prepared cDNA, a FAM probe of [NT] ID NO: 16) sequence was used to amplify PPAR-gamma mRNA, and a VIC probe of [NT] ID NO: 15) sequence was used to amplify GAPDH mRNA as an intra control. Real time quantitative PCR was performed using the Applied Biosystems 7500 Real-Time PCR system (Applied Biosystems, USA). Results obtained from various experiments are recorded as mean±standard error of mean (SEM), and significance verification is determined using the student's T-test analysis method. The data were analyzed using one-way ANOVA to determine a statistically significant variance between each group for each final point measured, and statistical significance between each group was determined using the nonparametric Mann-Whitney test and Dunnett's multiple comparison test (IBM SPSS statistics version 19.0 statistic software, Inc, IBM, USA)."}, "3T3-L1 cells [4]": {"test_system": "3T3-L1 cells", "test": "Triglyceride production, Adipogenesis Colorimetric Assay", "assay_type": "cell-based, mouse", "protocol": "3T3-L1 cells, which are preadipocytes of mice, are suspended at a concentration of 2×10^4 cells/ml using Dulbecco's Modified EaDCRT media (DMEM, Gibco) containing 10% of Bovine Calf Serum as a growth media (GM), and then inoculated into 24-well plates at 1 ml each, and then adipocytes were cultured for 3 days to become confluent. In order to induce adipocyte differentiation, DMEM media containing 10% FBS was replaced with differentiation media (DM) supplemented with insulin, dexamethasone and 3-isobutyl-1-methylanthin (IBMX) and cultured for 2 days. After 2 days, DMEM media containing 10% FBS containing insulin was added to the existing medium. […] After differentiation was induced under the same conditions as above, triglyceride (TG) produced was measured using an Adipogenesis Colorimetric Assay (Biovision) kit. According to the protocol provided in the kit, after washing the cells once with PBS, 100 μl of Lipid Extract solution was added to scrape the cells, and the cells were placed at 90° C. for 30 minutes. Thereafter, the supernatant, which had turned cloudy, was left at room temperature until it became transparent, and then 50 μl of the supernatant was obtained and transferred to a 96-well plate. After adding 2 μl of lipase and reacting for 10 minutes, 50 μl of the reaction mixture containing the probe and enzyme mix was added and reacted, and the degree of color development was measured at 570 nm with a microplate meter. The concentration of triglyceride produced in the cells was determined using a standard curve for each concentration according to the triglyceride sample included in the kit."}, "3T3-L1 cells [5]": {"test_system": "3T3-L1 cells", "test": "Fat accumulation, Oil Red O staining", "assay_type": "cell-based, mouse", "description": "3T3-L1 cells, which are preadipocytes of mice, are suspended at a concentration of 2×10^4 cells/ml using Dulbecco's Modified EaDCRT media (DMEM, Gibco) containing 10% of Bovine Calf Serum as a growth media (GM), and then inoculated into 24-well plates at 1 ml each, and then adipocytes were cultured for 3 days to become confluent. […] In order to measure lipid accumulation after inducing the adipocyte differentiation, it was measured using Oil red 0 staining analysis (Sigma-aldrich). To fix the cells, 1% formaldehyde (based on distilled water) was added and reacted at 4° C. for 1 hour, followed by washing with distilled water, and then stained with 500 μl of filtered Oil Red 0 solution at room temperature for 1 hour. Then, after washing with distilled water, 300 μl of 100% isopropyl alcohol was added to extract intracellular oil red 0, and the degree of color development was measured at 492 nm using a microplate measuring instrument."}, "L6 myotube cells [6]": {"test_system": "L6 myotube cells", "test": "Glucose uptake (2-deoxy-D-[14C]-glucose) in muscle cells", "assay_type": "cell-based, rat", "description": "as §1"}, "3T3-L1 cells [7]": {"test_system": "3T3-L1 cells", "details": "for Cell Viability: mouse", "protocol": "DMEM medium (Gibco) supplemented with 10% Bovine Calf Serum and 1% Penicillin-streptomycin was used as a growth media (GM) to culture 3T3-L1 cells, which are mouse preadipocytes. The suspension was suspended at a concentration of 2×10^3 cells/ml, and 100 μl each was inoculated into a 96-well plate, and the cells were cultured to full capacity for 3 days. In order to induce fat differentiation, DMEM medium containing 10% FBS was replaced with a differentiation media (DM) supplemented with insulin, dexamethasone and 3-isobutyl-1-methylxanthine (IBMX), and cultured for 2 days. After 2 days, DMEM medium containing 10% FBS containing insulin was added to the existing medium. […] As described in the CCK-8 (Dojindo) kit for counting cells, 10 μl of CCK-8 solution was mixed with 90 μl of medium and added at 100 μl per well. After reacting for at least 30 minutes to 1 hour, absorbance was measured at 450 nm."}, "[8]": {"details": "Mus musculus, 3T3-L1, read-out: Inhibition Rate (TG production)"}, "[9]": {"details": "Table 6, mixture ratio 0:10, 25 μg/mL"}}, "note": "Read-outs that look alike come from different tables or passages of the source.", "data": [{"compound": "C=C(C)[C@@H]1CC[C@]2(C(=O)O)CC[C@]3(C)[C@H](C[C@H]4OC(=O)C[C@@H](O)[C@]5(C)[C@@H]4[C@@]3(C)CC[C@H]5C(=C)C)[C@@H]12", "note": "[Chiisanogenin, chiisanogenin]", "values": [{"measurement": "Inhibition Rate (OGTT)", "setting": "[1]", "result": 38, "unit": "%"}, {"measurement": "OGTT (30 min-0 min, mg/dL)", "setting": "[1]; glucose 1 g/kg", "result": "127.4 ± 13.03", "unit": "mg/dL"}, {"measurement": "Creatin (mg/dL), mean ± standard error", "setting": "[2]", "result": "0.635 ± 0.007", "unit": "mg/dL"}, {"measurement": "EC50", "setting": "L6 myotube cells [3]", "result": 23.3, "unit": "µM"}, {"measurement": "PPAR-γ mRNA Inhibition Rate (%)", "setting": "PPAR-gamma mRNA", "result": 49, "unit": "%"}, {"measurement": "PPAR-γ mRNA, mean ± standard error", "setting": "PPAR-gamma mRNA; real-time PCR vs GAPDH", "result": "2.134 ± 0.39"}, {"measurement": "inhibition at 10 µg/mL", "setting": "3T3-L1 cells [4]; [8]", "result": "11.4 ± 5.34", "unit": "%"}, {"measurement": "inhibition at 25 µg/mL", "setting": "3T3-L1 cells [4]; [8]", "result": "6.47 ± 0.73", "unit": "%"}, {"measurement": "inhibition at 50 µg/mL", "setting": "3T3-L1 cells [4]; [8]", "result": "22.8 ± 0.25", "unit": "%"}, {"measurement": "TG Production Rate (% relative to positive control)", "setting": "3T3-L1 cells [4]; Table 8, 10 μg/mL", "result": "90.84 ± 4.21", "unit": "%"}, {"measurement": "TG Production Rate (% relative to positive control)", "setting": "3T3-L1 cells [4]; Table 9, 25 μg/mL", "result": "94.63 ± 0.61", "unit": "%"}, {"measurement": "TG Production Rate (% relative to positive control)", "setting": "3T3-L1 cells [4]; Table 9, 50 μg/mL", "result": "81.07 ± 0.20", "unit": "%"}, {"measurement": "inhibition at 10 µg/mL", "setting": "3T3-L1 cells [5]; Mus musculus, 3T3-L1, Table 7, 10 μg/mL, read-out: Inhibition Rate (fat accumulation)", "result": "11.3 ± 1.47", "unit": "%"}, {"measurement": "Fat Accumulation Rate (% relative to positive control)", "setting": "3T3-L1 cells [5]; [9]", "result": "87.21 ± 4.82", "unit": "%"}, {"measurement": "Inhibition Rate (fat accumulation)", "setting": "3T3-L1 cells [5]; [9]", "result": "22.59 ± 7.34", "unit": "%"}, {"measurement": "Fat Accumulation Rate (% relative to positive control)", "setting": "3T3-L1 cells [5]; Table 7, 10 μg/mL", "result": "95.13 ± 5.90", "unit": "%"}, {"measurement": "Glucose absorption rate (%, relative to 100 nM insulin treatment as 100%)", "setting": "L6 myotube cells [6]; 5 μg/mL", "result": 1, "unit": "%"}, {"measurement": "Glucose absorption rate (%, relative to 100 nM insulin treatment as 100%)", "setting": "L6 myotube cells [6]; 15 μg/mL", "result": 25, "unit": "%"}, {"measurement": "Cytotoxicity (conclusion from Tables 3 to 5)", "setting": "3T3-L1 cells [7]", "result": "not cytotoxic"}, {"measurement": "Cell Viability", "setting": "3T3-L1 cells [7]; 10 μg/mL", "result": "127.27 ± 18.60", "unit": "%"}, {"measurement": "Cell Viability", "setting": "3T3-L1 cells [7]; 12.5 μg/mL", "result": "106.41 ± 3.40", "unit": "%"}, {"measurement": "Cell Viability", "setting": "3T3-L1 cells [7]; 50 μg/mL", "result": "117.77 ± 9.59", "unit": "%"}, {"measurement": "Cell Viability", "setting": "3T3-L1 cells [7]; 100 μg/mL", "result": "104.31 ± 9.72", "unit": "%"}]}, {"compound": "O=C(O)CC(O)(C(=O)O)C(O)C(=O)O", "note": "(centres unmarked) [Ca-HCA, hydroxy citric acid]", "values": [{"measurement": "EC50", "setting": "L6 myotube cells [3]", "result": 27.6, "unit": "µM"}, {"measurement": "inhibition at 25 µg/mL", "setting": "3T3-L1 cells [4]; Mus musculus, 3T3-L1, Table 9, 25 μg/mL, read-out: Inhibition Rate (TG production)", "result": "6.62 ± 0.98", "unit": "%"}, {"measurement": "inhibition at 50 µg/mL", "setting": "3T3-L1 cells [4]; Mus musculus, 3T3-L1, Table 9, 50 μg/mL, read-out: Inhibition Rate (TG production)", "result": "11.4 ± 0.88", "unit": "%"}, {"measurement": "TG Production Rate (% relative to positive control)", "setting": "3T3-L1 cells [4]; Table 9, 25 μg/mL", "result": "94.51 ± 0.81", "unit": "%"}, {"measurement": "TG Production Rate (% relative to positive control)", "setting": "3T3-L1 cells [4]; Table 9, 50 μg/mL", "result": "90.54 ± 0.73", "unit": "%"}, {"measurement": "Glucose absorption rate (%, relative to 100 nM insulin treatment as 100%)", "setting": "L6 myotube cells [6]; 5 μg/mL", "result": 5, "unit": "%"}, {"measurement": "Glucose absorption rate (%, relative to 100 nM insulin treatment as 100%)", "setting": "L6 myotube cells [6]; 30 μg/mL", "result": 50, "unit": "%"}, {"measurement": "Cytotoxicity (conclusion from Tables 3 to 5)", "setting": "3T3-L1 cells [7]", "result": "not cytotoxic"}, {"measurement": "Cell Viability", "setting": "3T3-L1 cells [7]; 12.5 μg/mL", "result": "113.20 ± 14.37", "unit": "%"}, {"measurement": "Cell Viability", "setting": "3T3-L1 cells [7]; 25 μg/mL", "result": "115.37 ± 8.86", "unit": "%"}, {"measurement": "Cell Viability", "setting": "3T3-L1 cells [7]; 50 μg/mL", "result": "86.24 ± 8.74", "unit": "%"}, {"measurement": "Cell Viability", "setting": "3T3-L1 cells [7]; 100 μg/mL", "result": "88.65 ± 11.58", "unit": "%"}]}]}
